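48-hour exposure; five concentrations; linearly interpolated endpoints. Here, GI50 denotes the concentration required for 50% inhibition of growth.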 Active and inactive are the calls of the source. Rule as the data show it: active = GI50 up to about 1.1 µM and inactive = higher.

The values below come from ChEMBL document CHEMBL1201862, “PubChem BioAssay data set” (2004).

Common to all, as to assay: NCI anticancer screen, dose series, 48 h
The test system of test [1] is K562.
Test [2] deals with Hs-578T.
Test [3] concerns OVCAR-4.
Test [4] concerns HCT-15.
Test [5] relates to HCC 2998.
Test [6] relates to COLO 205.
In test [7] the test system is NCI-H23.
For test [8], the system named is MDA-MB-231.
The subject of test [9] is A498.
Test [10] concerns LOX IMVI.
Test [11] has as its system HOP-92.
Test [12] relates to UACC-62.
In test [13] the test system is MDA-N.
For test [14], the system named is SF-539.
Test [15] deals with SR.
Test [16] deals with U-251.
In test [17] the test system is MOLT-4.
Test [18] relates to CCRF-CEM.
Test [19] deals with OVCAR-5.
Test [20] deals with SK-MEL-28.

Consider `Cc1ccc(-c2c(-c3ccccc3)[nH]c(C)c2C(=O)ONC(=O)c2ccccc2)cc1`, for which the GI50 in test [1] was 2.55 µM (inactive); in [2] it was 2.01 µM (inactive); in test [3], 2.72 µM (inactive); in test [4], 9.25 µM; in test [5], 15.5 µM (inactive); in test [6], 11.7 µM (inactive). Moreover, the GI50 in [7] was 5.53 µM (inactive); in test [8], 3.4 µM (inactive); in test [9], 12.7 µM (inactive); in test [10], 1.75 µM (inactive); in test [11], 1.67 µM (inactive); in test [12] it was 10.2 µM (inactive). Further, the GI50 in test [13] was 2.35 µM (inactive); in test [14], 2.97 µM (inactive); in test [15] it was 1.66 µM (inactive); in [16] it was 1.84 µM (inactive); in test [17] it was 2.74 µM (inactive); in test [18], 2.97 µM (inactive). Further, the figures for the GI50 in test [19] and in test [20] were 8.65 µM (inactive) and 12.1 µM (inactive), respectively.

`C[C@H]1O[C@@H](O[C@H]2[C@@H](O)C[C@H](O[C@H]3[C@@H](O)C[C@H](O[C@H]4CC[C@@]5(C)[C@H](CC[C@@H]6[C@@H]5CC[C@]5(C)[C@@H](C7=CC(=O)OC7)[C@@H](O)C[C@]65O)C4)O[C@@H]3C)O[C@@H]2C)C[C@H](O)[C@@H]1O` [GITOXIN]: the GI50 in [1] was 0.361 µM (active); in [2], 0.562 µM (active); in test [3], 0.271 µM (active); in test [4], 0.593 µM; in test [5], 4.19 µM (inactive); in test [6] it was 0.798 µM (active). The GI50 in test [7] is 0.0869 µM (active); in [8], 1.2 µM (inactive); in test [9], 0.237 µM (active); in test [10] it was 0.215 µM (active); in test [11], 0.402 µM (active); in [12] it was 0.418 µM (active). Besides, the GI50 was 0.266 µM (active) in [13]; 0.1 µM (active) in test [14]; 0.287 µM (active) in [15]; 0.258 µM (active) in test [16]; 0.0277 µM (active) in [17]; 0.109 µM (active) in test [18]. Also, the figures for the GI50 in test [19] and in test [20] were 0.656 µM (active) and 1.15 µM (inactive), respectively.
